Results: patent publication US7025968B2, “CMV vaccines” (ChemoCentryx, Inc., priority 2000, dated 2006)

How the values were obtained:
US28 = molecular target: T1, US28 (Human cytomegalovirus, UniProt P69332); settings: Kledal et al., 1998; read-out: KI of binding to US28; cited from earlier work
T1 sequence (P69332 1-354): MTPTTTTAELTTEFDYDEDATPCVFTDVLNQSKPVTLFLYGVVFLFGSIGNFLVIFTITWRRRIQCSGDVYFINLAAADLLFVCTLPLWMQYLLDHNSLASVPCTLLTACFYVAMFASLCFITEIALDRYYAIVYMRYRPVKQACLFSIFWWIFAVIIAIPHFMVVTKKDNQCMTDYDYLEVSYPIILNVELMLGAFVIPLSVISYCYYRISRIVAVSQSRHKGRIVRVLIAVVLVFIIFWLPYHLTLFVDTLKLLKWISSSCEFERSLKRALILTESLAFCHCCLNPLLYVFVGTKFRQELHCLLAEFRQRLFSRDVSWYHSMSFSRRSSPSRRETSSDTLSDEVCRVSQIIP

[1] = test system: rhCMV virions purified from RHDF cells; assay: 125I-fractalkine binding to virions (Example 4), rhCMV; set-up: species or system rhesus CMV strain 68.1; settings: 3 hours at 4° C., FIG. 7
Protocol: (§1) Human dermal fibroblast (HDF) were infected at an MOI of 3 with human CMV strain Toledo or a Toledo strain in which the US28 gene had been replaced with a green fluorescent protein/gpt resistance cassette (Toledo deltaUS28) (see, e.g., Vieira, J. et al. (1998) J. Virol. 72:S158-65). Alternatively, rhesus dermal fibroblasts (RhDF) were infected at an MOI of 3 with rhesus CMV strain 68.1 (see ATCC # VR-677). At 96 hours post infection supernatants were collected.
(§2) Supernatants were cleared by two spins at 1,500 rpm for 5 minutes in a bench top centrifuge. Virions were pelleted from the supernatant for 30 minutes at 10,000 rpm in a Beckman JA-21 or J-14 centrifuge or other similar centrifuge and resuspended in 0.5 ml TN buffer (0.05 M Tris/HCl, pH 7.4, 0.1M NaCl) then layered onto a 5 ml sucrose density gradient (20% to 70% w/v sucrose in TN) in a SW 50 centrifuge tube. Gradients were spun 90 minutes at 24,000 rpm in a Beckman SW50 centrifuge at 10° C. […]
(§3) Following incubation, the assay wells were harvested under vacuum using filter plates, pre-soaked with PEI solution. Scintillation fluid was added, the plates sealed and the radioactivity in the various wells counted.

[2] = test system: Wild type HCMV virions expressing US28; assay: 125I-fractalkine binding to virions (Example 4), wild type HCMV; set-up: species or system human CMV strain Toledo; settings: 3 hours at 4° C., FIG. 7
Protocol: as §1, §2, §3

[3] = test system: HCMV virions lacking US28 (Toledo deltaUS28); assay: 125I-fractalkine binding to virions (Example 4), US28-deleted HCMV; set-up: species or system human CMV strain Toledo deltaUS28; settings: 3 hours at 4° C., FIG. 7
Protocol: as §1, §2, §3

[4] = test system: Rhesus dermal fibroblasts infected with Rhesus CMV; assay: radioligand binding assay, 125I-fractalkine on rhCMV-infected cells (Example 3); settings: unlabeled fractalkine vs 125I-fractalkine ~50 pM, 2-4 hours at 4° C., FIG. 6; read-out: IC50, reduction of binding of labeled fractalkine to the receptor by 50%
Protocol: Radioligand binding assays were carried our in the following manner. The target cells typically used in these assays were Rhesus dermal fibroblasts which had been infected with Rhesus; CMV for 3-7 days. Lots of cells verified for fractalkine binding were frozen until ready for use. For the assay, cells were thawed, washed, and resuspended in assay buffer (20 mM HEPES pH 7.1, 140 mM NaCl, 1 mM CaCl2, 5 mM MgCl2, and 0.2% bovine serum albumin) to a concentration of from 4×10^5 to 5×10^6 cells/ml.
Serial dilutions of unlabeled fractalkine were prepared as a 10× solution in 20% DMSO, and 0.02 ml was placed in assay plates. Next 0.09 ml of cells was added to the assay plates containing the unlabeled fractalkine. Lastly, 0.09 ml of ^125I-fractalkine diluted in assay buffer (final concentration ˜50 pM, with 20,000-50,000 cpm per well) was added, the plates sealed and incubated for 2-4 hours at 4° C. on a shaker platform. Assay plates were harvested using Packard GF/B filter plates (pre-soaked in 0.3% polyethyleneimmine (PEI) solution) on a Packard vacuum cell harvester. Scintillation fluid was added to all wells, the plates were sealed and then counted in a Top Count scintillation counter. Control wells containing either diluent only (for total counts) or excess unlabeled fractalkine (1 μg/ml, for non-specific binding) were used to calculate the percent of total inhibition. […]

[5] = test system: virions with deletion of US28 from the genome (TolΔUS28); assay: 125I-fractalkine binding to purified US28-deleted HCMV virions (Example 1); settings: FIG. 5
Protocol: (§4) Human dermal fibroblasts were infected with HCMV strain Toledo or HCMV TolΔUS28 (Streblow et al., 1999, Cell 99:511-20) at an MOI of 0.01 and maintained at 37° C. and 5% CO2 in Dulbecco's minimal essential medium with 10% fetal calf serum and fed as necessary. At day 15 post infection supernatant was collected and clarified by two rounds of centrifugation at 400 g. Virions from the clarified supernatant were pelleted at 10,000 g, resuspended in TN (50 mM TRIS-Cl pH 7.5, 100 mM NaCl), and purified over two consecutive 20-70% sucrose gradients by standard techniques (Britt W J., 1984, Virology 135: 369-78). Virions were resuspended in 500 ul of assay buffer (20 mM HEPES, 140 mM NaCl, 1 mM CaCl2, 5 mM MgCl2, and with 0.2% bovine serum albumin) and 0.09 mL added to each well of assay plates containing serial dilutions of fractalkine (concentrations between 0-250 nM) in triplicate.
(§5) Then 0.09 mL of ^125I-fractalkine diluted in assay buffer (final concentration ˜2-10 fM, with ˜30,000 cpm per well) was added, the plates sealed and incubated for approximately 3 hours at 4° C. on a shaker platform. The assay plates were harvested using Packard filter plates, pre-soaked in PEI solution, on the vacuum harvest apparatus. Scintillation fluid (35 μL) was added to all wells, the plates were sealed and counted in a Top Count scintillation counter. […]

[6] = molecular target: wild type virions (Toledo); assay: 125I-fractalkine competition binding to purified HCMV virions (Example 1); set-up: species or system HCMV strain Toledo; settings: about 3 hours at 4° C., FIG. 5, read-out: IC50, unlabeled fractalkine competing off labeled fractalkine
Protocol: as §4, §5

fractalkine: CX3C chemokine, tends to be cell bound; binds with very high affinity to the US28 receptor of HCMV
Ki (US28): ~0.05 nM | binding of radiolabeled fractalkine to virions [1]: also bind to fractalkine | binding of radiolabeled fractalkine to virions [2]: bind fractalkine tightly | binding of radiolabeled fractalkine to virions [3]: do not bind fractalkine | IC50 [4]: 0.044 nM | binding of labeled fractalkine to virions [5]: virtually no binding | IC50 [6]: ~0.04 nM
